According to PubChem BioAssay (NCI):
“And” between values parts separate entries of the source, which are not always exact repeats. Equal values may be shown once.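 Values below derive from 48-hour exposures of cells grown in 96-well plates, with endpoints linearly interpolated between the two concentrations bracketing the appropriate inhibition level. GI50 = concentration required for 50% inhibition of growth. TGI is the concentration that stops growth completely.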 Where a SMILES comes first, the peptide text is derived from it. [ ]: non-standard residue; d: D form. Orn = NCCC[CH](N)C(=O)O

Legend:
Assay in all cases: inhibition of tumour cell growth, NCI panel, 48 h
[1] = system: DLD-1 colon
[2] = system: K-562 leukemia
[3] = system: KM20L2 colon
[4] = system: M19-MEL melanoma
[5] = system: MOLT-4 leukemia
[6] = system: NCI-H460 lung
[7] = system: NCI-H522 lung
[8] = system: OVCAR-5 ovarian
[9] = system: SN12C renal
[10] = system: BT-549 breast
[11] = system: SR leukemia

Compound	TGI [1] [µM]	TGI [2] [µM]	TGI [3] [µM]	TGI [4] [µM]	TGI [5] [µM]	TGI [6]	TGI [7]	TGI [8]	TGI [9]	GI50 [10]	TGI [10]	GI50 [2] [µM]	GI50 [5] [µM]	GI50 [6]	GI50 [7] [µM]	GI50 [8] [µM]	GI50 [9]	GI50 [11]	TGI [11]
O=C(Nc1ccc(Cl)cc1Cl)/C(Cl)=C1/Sc2ccccc2NC1=O	> 100	> 100	> 100	> 100	87	> 100 µM	49 µM	> 100 µM	> 100 µM	–	–	–	–	–	–	–	–	–	–
O=C(Nc1cc(Cl)cc(Cl)c1)c1ccc(NC2=C(Cl)C(=O)N(Cc3ccccc3)C2=O)cc1	–	6.93	–	–	4.91	4.51 µM	25.7 µM	17.8 µM	22.6 µM	4.59 µM	19.3 µM	2.31	1.51	1.8 µM	7.78	4.68	6.83 µM	1.51 µM	4.81 µM
Cn1cc(C2=C(c3cccc(NCC(O)CO)c3)C(=O)NC2=O)c2cc(Cl)ccc21 (stereo not given)	–	> 25	–	–	18	> 25 µM	11.4 µM	> 20.9 µM	16.5 µM	3.82 µM	9.3 µM	2.19	4.2	5.45 µM	2.45	9.63	4.62 µM	3.03 µM	> 25 µM
N=C(N)c1ccc(-c2ccc(-c3ccco3)o2)cc1F	–	3.82	–	–	5.22	4.17 µM	6 µM	10.3 µM	6.53 µM	2.19 µM	5.11 µM	1.58	2.27	1.98 µM	2.31	2.7	2.01 µM	1.97 µM	5.4 µM
CC(C)CC1NC(=O)C(CCCN)NC(=O)C(C(C)C)NC(=O)C2CCCN2C(=O)C(Cc2ccccc2)NC(=O)C(CC(C)C)NC(=O)C(CCCN)NC(=O)C(C(C)C)NC(=O)C2CCCN2C(=O)C(Cc2ccccc2)NC1=O (stereo not given) (cyclo(FPV[Orn]LFPV[Orn]L); configuration not given here)	–	0.0565	–	–	0.402	0.0385 µM and 0.107 µM	0.0376 µM and 0.0958 µM	0.968 µM and 1.98 µM	0.419 µM and 1.13 µM	0.0326 µM and 0.0459 µM	0.261 µM and 0.271 µM	< 0.00325	0.0236	0.0111 µM and 0.0287 µM	0.00767	0.0117	0.0111 µM and 0.0288 µM	0.0148 µM and 0.036 µM	0.258 µM and 0.96 µM
COc1ccc(-c2oncc2-c2cc(OC)c3c(c2)OCO3)cc1	–	> 100	–	–	> 92.6	> 100 µM	5.77 µM	> 100 µM	> 100 µM	5.24 µM	> 100 µM	0.441	3.9	3.58 µM	1.44	5.14	5.23 µM	1.13 µM	39.6 µM
COc1ccc(C2SC(C)C(=O)N2NC(=O)C(O)c2ccccc2)cc1 (stereo not given)	–	> 100	–	–	> 100	> 100 µM	> 100 µM	> 100 µM	> 100 µM	> 100 µM	> 100 µM	> 100	> 100	> 100 µM	> 100	> 100	> 100 µM	63 µM	> 100 µM
Cc1ccc(C2CC(c3cccc(Nc4ccncc4)c3)=NN2c2ccc(Cl)cc2)cc1 (stereo not given)	–	4.46	–	–	4.12	3.34 µM	3.67 µM	2.99 µM	3.13 µM	1.81 µM	3.4 µM	1.84	1.85	1.72 µM	1.78	1.61	1.66 µM	1.52 µM	3.52 µM
Nc1nn(C(=O)Nc2ccc(Cc3ccccc3)cc2)c2ccccc12	–	33.8	–	–	20.4	13 µM	> 100 µM	> 100 µM	28 µM	13.5 µM	39.6 µM	1.2	0.636	0.409 µM	2.9	31.3	12.9 µM	0.0153 µM	0.0822 µM
COc1cccc(-c2cc(NCc3ccc4c(c3)OCO4)nc(N)n2)c1	–	> 34	–	–	12.8	9.59 µM	1.27 µM	28.8 µM	22 µM	0.149 µM	5.15 µM	0.041	0.11	0.0428 µM	0.0607	0.488	0.103 µM	0.0453 µM	75 µM
CCN(CC)CCCC(C)Nc1ccnc2cc(Cl)c(SCc3ccccc3)cc12 (stereo not given)	–	0.702	–	–	4.14	4.54 µM	2.01 µM	3.7 µM	4.07 µM	1.78 µM	3.28 µM	0.266	0.623	1.77 µM	0.58	1.73	1.7 µM	0.173 µM	0.539 µM
Cc1cccc2c(=O)c3c(sc12)c(NCCN)nc1ccccc13	–	1.95	–	–	1.8	1.54 µM	1.75 µM	1.6 µM	1.54 µM	1.33 µM	4.07 µM	0.827	0.887	0.768 µM	0.863	0.834	0.754 µM	0.719 µM	1.85 µM
OCCCNC(=S)Nc1ccc(-c2nc3ccccc3s2)cc1	–	> 100	–	–	> 100	> 100 µM	38.7 µM	58.3 µM	54.8 µM	25 µM	82.9 µM	29.7	16.7	25.9 µM	12.6	20.6	22.8 µM	14.6 µM	50 µM
O=C(Nc1cccc2ccccc12)c1cc2ccccc2cc1O	–	23.4	–	–	21.5	5.87 µM	4.83 µM	13 µM	9.97 µM	3.6 µM	16.4 µM	1.95	3.08	2.06 µM	1.66	3.32	2.4 µM	2.57 µM	9.73 µM
COc1ccc2oc(-c3ccc(Cl)cc3)c(N3CCN(C)CC3)c2c1	–	> 100	–	–	6.95	4.16 µM	3.91 µM	4.34 µM	10.2 µM	6.39 µM	20.7 µM	3.38	2.28	1.94 µM	1.9	1.95	2.52 µM	2.27 µM	8.12 µM
COc1ccc2cc(C(=O)/C=C/c3ccccc3OC)ccc2c1	–	–	–	–	9.45	> 51.7 µM	9.67 µM	49.7 µM	6.82 µM	4.55 µM	24.6 µM	0.669	1.26	–	1.93	18.4	1.97 µM	0.312 µM	–
O=C(CN/C=C\C(=O)c1cc(Cl)ccc1Cl)c1ccccc1	–	> 100	–	–	> 100	> 100 µM	34.8 µM	> 100 µM	57.1 µM	27.4 µM	74.7 µM	61.2	> 100	32.3 µM	17.4	30.6	25.9 µM	> 100 µM	> 100 µM
COC(C(=O)[C@@H](O)[C@@H](C)O)[C@@H]1Cc2cc3cc(O[C@H]4C[C@@H](O[C@H]5C[C@@H](O)[C@H](O)C(C)O5)[C@H](O)C(C)O4)c(C)c(O)c3c(O)c2C(=O)[C@H]1O[C@H]1C[C@@H](O[C@H]2C[C@@H](O[C@H]3C[C@@H](O)[C@@H](O)C(C)O3)[C@@H](O)C(C)O2)[C@H](O)C(C)O1 (stereo not given in full)	–	> 32.5	–	–	> 32.5	> 32.5 µM	1.62 µM	> 32.5 µM	> 32.5 µM	0.149 µM	4.42 µM	0.312	1.04	0.104 µM	0.058	0.485	0.265 µM	0.112 µM	> 32.5 µM
CSc1ccc2c(c1)C(=O)c1c-2n(CCCN=[N+]=[N-])c(=O)c2cc([N+](=O)[O-])ccc12	–	> 40.2	–	–	6.38	> 100 µM	> 100 µM	> 100 µM	> 100 µM	–	> 100 µM	1.99	0.371	0.322 µM	6.01	> 76.6	1.63 µM	0.2 µM	5.8 µM
COc1ccc(/C=C2\CCCC3=C2N=C2SC=NN2C3c2ccc(OC)c(OC)c2)cc1OC (stereo not given)	–	> 100	–	–	> 100	> 100 µM	> 100 µM	> 100 µM	> 100 µM	21.9 µM	> 100 µM	6.09	21.4	22.4 µM	17.9	47.7	18.2 µM	5.65 µM	66.1 µM
Cc1ccc(S(=O)(=O)C2=C3C(=C(c4ccccc4)c4ccccc43)CN(S(=O)(=O)c3ccc(C)cc3)C2)cc1	–	> 100	–	–	7.9	15.1 µM	6.35 µM	> 100 µM	20.1 µM	1.93 µM	4.65 µM	2.08	1.36	1.94 µM	2.41	25.4	3.04 µM	1.55 µM	25.7 µM
